Assay results published in ChEMBL document CHEMBL1152860, “Synthesis and antiproliferative activity of 3-amino-N-phenyl-1H-indazole-1-carboxamides” (2009).
Active and inactive are the calls of the source. The calls are words filed in the database; no cut-off is given here.

Legend:
OVCAR-8 = test: Growth inhibition of human OVCAR8 cells after 48 hrs by SRB assay; format: functional; conditions: OVCAR-8, 48 h
NCI-H322M = test: Growth inhibition of human NCI-H322M cells after 48 hrs by SRB assay; format: functional
MDA-MB-231 = test: Growth inhibition of human MDA-MB-231 cells after 48 hrs by SRB assay; format: functional; conditions: MDA-MB-231, 48 h
TK-10 = test: Growth inhibition of human TK10 cells after 48 hrs by SRB assay; format: functional; conditions: TK-10, 48 h
U-251 = test: Growth inhibition of human U251 cells after 48 hrs by SRB assay; format: functional; conditions: U-251, 48 h
SNB-75 = test: Growth inhibition of human SNB75 cells after 48 hrs by SRB assay; format: functional; conditions: SNB-75, 48 h
MDA-MB-435 = test: Growth inhibition of human MDA-MB-435 cells after 48 hrs by SRB assay; format: functional; conditions: MDA-MB-435, 48 h
SR = test: Growth inhibition of human SR cells after 48 hrs by SRB assay; format: functional
PC-3 = test: Growth inhibition of human PC3 cells after 48 hrs by SRB assay; format: functional; conditions: PC-3, 48 h
HCC 2998 = test: Growth inhibition of human HCC2998 cells after 48 hrs by SRB assay; format: functional; conditions: HCC 2998, 48 h
HL-60(TB) = test: Growth inhibition of human HL-60(TB) cells after 48 hrs by SRB assay; format: functional; conditions: HL-60, 48 h
OVCAR-4 = test: Growth inhibition of human OVCAR4 cells after 48 hrs by SRB assay; format: functional; conditions: OVCAR-4, 48 h
UACC-62 = test: Growth inhibition of human UACC62 cells after 48 hrs by SRB assay; format: functional; conditions: UACC-62, 48 h
HT-29 = test: Growth inhibition of human HT-29 cells after 48 hrs by SRB assay; format: functional; conditions: HT-29, 48 h
A498 = test: Growth inhibition of human A498 cells after 48 hrs by SRB assay; format: functional; conditions: A498, 48 h
SK-MEL-5 = test: Growth inhibition of human SK-MEL-5 cells after 48 hrs by SRB assay; format: functional; conditions: SK-MEL-5, 48 h
SN12C = test: Growth inhibition of human SN12C cells after 48 hrs by SRB assay; format: functional
CAKI-1 = test: Growth inhibition of human Caki1 cells after 48 hrs by SRB assay; format: functional; conditions: CAKI-1, 48 h
NCI-H460 = test: Growth inhibition of human NCI-H460 cells after 48 hrs by SRB assay; format: functional; conditions: NCI-H460, 48 h
NCI-H23 = test: Growth inhibition of human NCI-H23 cells after 48 hrs by SRB assay; format: functional; conditions: NCI-H23, 48 h
M14 = test: Growth inhibition of human M14 cells after 48 hrs by SRB assay; format: functional; conditions: M14, 48 h
COLO 205 = test: Growth inhibition of human COLO205 cells after 48 hrs by SRB assay; format: functional; conditions: COLO 205, 48 h
SF-295 = test: Growth inhibition of human SF295 cells after 48 hrs by SRB assay; format: functional; conditions: SF-295, 48 h
MCF7 = test: Growth inhibition of human MCF7 cells after 48 hrs by SRB assay; format: functional; conditions: MCF7, 48 h
OVCAR-3 = test: Growth inhibition of human OVCAR-3 cells after 48 hrs by SRB assay; format: functional; conditions: OVCAR-3, 48 h
HCT-15 = test: Growth inhibition of human HCT15 cells after 48 hrs by SRB assay; format: functional; conditions: HCT-15, 48 h
RXF 393 = test: Growth inhibition of human […] cells after 48 hrs by SRB assay; format: functional; conditions: RXF 393, 48 h
SW-620 = test: Growth inhibition of human SW620 cells after 48 hrs by SRB assay; format: functional; conditions: SW-620, 48 h
K562 [1] = test: Growth inhibition of human K562 cells after 48 hrs by SRB assay; format: functional; conditions: K562, 48 h
SK-MEL-28 = test: Growth inhibition of human SK-MEL-28 cells after 48 hrs by SRB assay; format: functional; conditions: SK-MEL-28, 48 h
K562 [2] = test: Cell cycle arrest in human K562 cells assessed as accumulation at G2/M phase at 42.7 uM after 24 hrs using propidium iodide staining by flow cytometry; format: functional, cell-based
BT-549 = test: Growth inhibition of human BT549 cells after 48 hrs by SRB assay; format: functional; conditions: BT-549, 48 h
786-0 = test: Growth inhibition of human 786-0 cells after 48 hrs by SRB assay; format: functional; conditions: 786-0, 48 h
HCT-116 = test: Growth inhibition of human HCT116 cells after 48 hrs by SRB assay; format: functional; conditions: HCT-116, 48 h
DU-145 = test: Growth inhibition of human DU145 cells after 48 hrs by SRB assay; format: functional; conditions: DU-145, 48 h
NCI-H522 = test: Growth inhibition of human NCI-H522 cells after 48 hrs by SRB assay; format: functional; conditions: NCI-H522, 48 h
SNB-19 = test: Growth inhibition of human SNB19 cells after 48 hrs by SRB assay; format: functional; conditions: SNB-19, 48 h
KM12 = test: Growth inhibition of human KM12 cells after 48 hrs by SRB assay; format: functional; conditions: KM12, 48 h
UACC-257 = test: Growth inhibition of human UACC257 cells after 48 hrs by SRB assay; format: functional; conditions: UACC-257, 48 h
HOP-62 = test: Growth inhibition of human HOP62 cells after 48 hrs by SRB assay; format: functional; conditions: HOP-62, 48 h
K562 [3] = test: Cell cycle arrest in human K562 cells assessed as accumulation at S phase at 42.7 uM after 24 hrs using propidium iodide staining by flow cytometry; format: functional, cell-based
T47D = test: Growth inhibition of human T47D cells after 48 hrs by SRB assay; format: functional
UO-31 = test: Growth inhibition of human UO31 cells after 48 hrs by SRB assay; format: functional; conditions: UO-31, 48 h
NCI-H226 = test: Growth inhibition of human NCI-H226 cells after 48 hrs by SRB assay; format: functional; conditions: NCI-H226, 48 h
EKVX = test: Growth inhibition of human EKVX cells after 48 hrs by SRB assay; format: functional
MOLT-4 = test: Growth inhibition of human MOLT4 cells after 48 hrs by SRB assay; format: functional; conditions: MOLT-4, 48 h
SF-539 = test: Growth inhibition of human SF539 cells after 48 hrs by SRB assay; format: functional; conditions: SF-539, 48 h
SF-268 = test: Growth inhibition of human SF268 cells after 48 hrs by SRB assay; format: functional; conditions: SF-268, 48 h
HOP-92 = test: Growth inhibition of human HOP92 cells after 48 hrs by SRB assay; format: functional; conditions: HOP-92, 48 h
RPMI-8226 = test: Growth inhibition of human RPMI8226 cells after 48 hrs by SRB assay; format: functional; conditions: RPMI-8226, 48 h
NCI/ADR-RES = test: Growth inhibition of human NCI/ADR-RES cells after 48 hrs by SRB assay; format: functional
Malme-3M = test: Growth inhibition of human MALME-3M cells after 48 hrs by SRB assay; format: functional
IGROV-1 = test: Growth inhibition of human IGROV1 cells after 48 hrs by SRB assay; format: functional; conditions: IGROV-1, 48 h
LOX IMVI = test: Growth inhibition of human LOXIMVI cells after 48 hrs by SRB assay; format: functional
OVCAR-5 = test: Growth inhibition of human OVCAR5 cells after 48 hrs by SRB assay; format: functional; conditions: OVCAR-5, 48 h
[4] = Growth inhibition of human Hs 578T cells after 48 hrs by SRB assay; format: functional
SK-MEL-2 = test: Growth inhibition of human SK-MEL-2 cells after 48 hrs by SRB assay; format: functional; conditions: SK-MEL-2, 48 h
ACHN = test: Growth inhibition of human ACHN cells after 48 hrs by SRB assay; format: functional
A549 = test: Growth inhibition of human A549 cells after 48 hrs by SRB assay; format: functional; conditions: A549, 48 h
SK-OV-3 = test: Growth inhibition of human SKOV3 cells after 48 hrs by SRB assay; format: functional; conditions: SK-OV-3, 48 h
K562 [5] = test: Growth inhibition of drug-resistant human K562 cells after 48 hrs by SRB assay; format: functional; conditions: K562, 48 h

O=C(Nc1ccccc1OC(F)(F)F)Nc1n[nH]c2ccccc12
GI50 (OVCAR-8): 29.6 µM
GI50 (NCI-H322M): 81.6 µM
GI50 (MDA-MB-231): 17.9 µM
GI50 (TK-10): 37.9 µM
GI50 (U-251): 31.1 µM
GI50 (SNB-75): 17.5 µM
GI50 (MDA-MB-435): 51.5 µM
GI50 (SR): 0.0489 µM
TGI (SR): 24 µM
CC50 (SR; read-out: LC50 (the source's name)): > 100 µM
GI50 (PC-3): 31.4 µM
GI50 (HCC 2998): 55.9 µM
GI50 (HL-60(TB)): 17.9 µM
GI50 (OVCAR-4): 37.7 µM
GI50 (UACC-62): 31.7 µM
GI50 (HT-29): 26.1 µM
GI50 (A498): > 100 µM
GI50 (SK-MEL-5): 28.7 µM
GI50 (SN12C): 72.5 µM
GI50 (CAKI-1): 31 µM
GI50 (NCI-H460): 15 µM
GI50 (NCI-H23): 50 µM
GI50 (M14): 22.5 µM
GI50 (COLO 205): 71.8 µM
GI50 (SF-295): 39 µM
GI50 (MCF7): 1.75 µM
GI50 (OVCAR-3): 90.8 µM
GI50 (HCT-15): 36.2 µM
GI50 (RXF 393): 24.3 µM
GI50 (SW-620): 36.7 µM
GI50 (K562 [1]): 42.7 µM
GI50 (SK-MEL-28): 42.2 µM
Activity (K562 [2]): Active
GI50 (BT-549): 76.4 µM
GI50 (786-0): 38.7 µM
GI50 (HCT-116): 16.2 µM
GI50 (DU-145): 51.7 µM
GI50 (NCI-H522): 33.9 µM
GI50 (SNB-19): 78.3 µM
GI50 (KM12): 23.4 µM
GI50 (UACC-257): 47.2 µM
GI50 (HOP-62): 19.6 µM
Activity (K562 [3]): Active
GI50 (T47D): 37.5 µM
GI50 (UO-31): 17.4 µM
GI50 (NCI-H226): 26.1 µM
GI50 (EKVX): 48.2 µM
GI50 (MOLT-4): 59.1 µM
GI50 (SF-539): 30.5 µM
GI50 (SF-268): 16.2 µM
GI50 (HOP-92): 12.9 µM
GI50 (RPMI-8226): 52 µM
GI50 (NCI/ADR-RES): 44.2 µM
GI50 (Malme-3M): 76.9 µM
GI50 (IGROV-1): 4.59 µM
GI50 (LOX IMVI): 22.5 µM
GI50 (OVCAR-5): 34.3 µM
GI50 [4]: 19.4 µM
GI50 (SK-MEL-2): 81.4 µM
GI50 (ACHN): 31.1 µM
GI50 (A549): 15.7 µM
GI50 (SK-OV-3): > 100 µM

CCc1nc2cc(Cl)ccc2c(=O)n1-c1n[nH]c2ccccc12
GI50 (K562 [1]): 10.7 µM
GI50 (K562 [5]): 11.7 µM
